We go through three molecules from US20220411473A1, “LYSIN-ANTIMICROBIAL PEPTIDE (AMP) POLYPEPTIDE CONSTRUCTS, LYSINS, ISOLATED POLYNUCLEOTIDES ENCODING SAME AND USES THEREOF” (priority 2019, published 2022).

Read-outs that look alike come from different tables or passages of the source.

Assay [1] concerns carbapenem-resistant P. aeruginosa strains. The class given is cell-based, Pseudomonas aeruginosa. As to conditions: for susceptibility category, antibiotic alone: Table 22, WC-452. As to the method: Such resensitization may be determined by combining the present lysins or lysin-AMP polypeptide constructs with an antibiotic in a checkerboard assay as described herein. Antibiotic-resistant bacteria, such as carbapenem-resistant P. aeruginosa, are added to the lysin or lysin-AMP polypeptide construct combination. […] See Clinical and Laboratory Standards Institute (CLSI), CLSI. […] M100 Performance Standards for Antimicrobial Susceptibility Testing; 29th Edition. Clinical and Laboratory Standards Institute, Wayne, Pa., which is herein incorporated by reference in its entirety. For susceptibility category, antibiotic alone: key: (R) = resistant; (S) = sensitive. For susceptibility category, imipenem alone: key: (R) = resistant; (S) = sensitive. For susceptibility category, imipenem in combination with GN121: key: (R) = resistant; (S) = sensitive. For susceptibility category, imipenem in combination with GN123: key: (R) = resistant; (S) = sensitive. For susceptibility category, meropenem alone: key: (R) = resistant; (S) = sensitive. For susceptibility category, meropenem in combination with GN123: key: (R) = resistant; (S) = sensitive.
Up to seven carbapenem-resistant isolates were assessed. […] See Clinical and Laboratory Standards Institute (CLSI), CLSI. […] M100 Performance Standards for Antimicrobial Susceptibility Testing; 29th Edition. Clinical and Laboratory Standards Institute, Wayne, Pa.

The next assay concerns Staphylococcus aureus. Description: Daptomycin MIC in […] (positive control). The assay is classed as cell-based. The following applies: S. aureus.
The mark [2] stands for this setting: Table 19, isolates PA19-PA24 and WC-452.
Where [3] appears, read: Table 18, isolates PA19-PA24 and WC-452.

Description for Staphylococcus aureus: As a positive control, the impact of […] ® on daptomycin (DAP) activity against Staphylococcus aureus was also tested.

On to `C[C@@H](O)[C@H]1C(=O)N2C(C(=O)O)=C(S[C@@H]3CN[C@H](C(=O)N(C)C)C3)[C@H](C)[C@H]12` [Meropenem, meropenem], for which the “susceptibility category, meropenem alone” value in assay [1] (setting [2]) is “R”; in assay [1] (Table 21, isolates PA19-PA24 and WC-452) it was “R”. In assay [1] (setting [2]), the “susceptibility category, meropenem in combination with GN123” value is “(S)”. The “susceptibility category, antibiotic alone” value in assay [1] is recorded as “R”. Also, the “MIC Combination” value in assay [1] (isolate PA19, meropenem + GN121) was 1 µg/mL; in assay [1] (isolate PA19, meropenem + GN123), 0.5 µg/mL; in assay [1] (isolate PA20, meropenem + GN121), 1 µg/mL; in assay [1] (isolate PA20, meropenem + GN123), 0.5 µg/mL; in assay [1] (isolate PA21, meropenem + GN121) it was 2 µg/mL; in assay [1] (isolate PA21, meropenem + GN123) it was 1 µg/mL. In addition, the “MIC Combination” value worked out at 1 µg/mL in assay [1] (isolate PA22, meropenem + GN121); 1 µg/mL in assay [1] (isolate PA22, meropenem + GN123); 2 µg/mL in assay [1] (isolate PA23, meropenem + GN121); 0.5 µg/mL in assay [1] (isolate PA23, meropenem + GN123); 1 µg/mL in assay [1] (isolate PA24, meropenem + GN121); 2 µg/mL in assay [1] (isolate PA24, meropenem + GN123). The “MIC Combination” value in assay [1] (isolate WC-452, meropenem + GN121) is 1 µg/mL; in assay [1] (isolate WC-452, meropenem + GN123), 1 µg/mL.

On to `C[C@@H](O)[C@H]1C(=O)N2C(C(=O)O)=C(SCCN=CN)C[C@H]12` [Imipenem, imipenem], for which the “susceptibility category, imipenem alone” value in assay [1] (setting [3]) is recorded as “R”; in assay [1] (Table 20, isolates PA19-PA24) it was “R”. Besides, the “susceptibility category, imipenem in combination with GN123” value in assay [1] (setting [3]) is given as “(S)”. Further, the “susceptibility category, imipenem in combination with GN121” value in assay [1] (Table 20, isolates PA19-PA24) is given as “(S)”. The “susceptibility category, antibiotic alone” value in assay [1] is on record as “R”. Moreover, the “MIC Combination” value in assay [1] (isolate PA19, imipenem + GN121) was 1 µg/mL; in assay [1] (isolate PA19, imipenem + GN123), 0.5 µg/mL; in assay [1] (isolate PA20, imipenem + GN121), 0.5 µg/mL; in assay [1] (isolate PA20, imipenem + GN123), 1 µg/mL; in assay [1] (isolate PA21, imipenem + GN121), 1 µg/mL; in assay [1] (isolate PA21, imipenem + GN123) it was 0.5 µg/mL. Besides, the “MIC Combination” value in assay [1] (isolate PA22, imipenem + GN121) worked out at 2 µg/mL; in assay [1] (isolate PA22, imipenem + GN123), 2 µg/mL; in assay [1] (isolate PA23, imipenem + GN123), 0.25 µg/mL; in assay [1] (isolate PA24, imipenem + GN121) it was 1 µg/mL; in assay [1] (isolate PA24, imipenem + GN123), 2 µg/mL; in assay [1] (isolate WC-452, imipenem + GN123) it was 1 µg/mL.

Consider daptomycin, for which the “fold increase in MIC” value is reported as 32 fold in the assay on Staphylococcus aureus (0.09% SURVANTA), 32 fold with Staphylococcus aureus (0.19% SURVANTA), 128 fold with Staphylococcus aureus (1.56% SURVANTA) and 128 fold in the assay on Staphylococcus aureus (3.15% SURVANTA).
